IC50 data for 24 compounds are collected here from patent publication US11634417B2 (Array BioPharma Inc., priority 2019, dated 2023).

Assay [1] relates to ERK1/2 (Thr202/Tyr204) phosphorylation in KYSE520 cells. The experiment in a line: Cellular Phospho-p44/42 MAPK (Erk1/2) (Thr202/Tyr204) assay, In-Cell Western. It counts as cell-based. The note with it: Homo sapiens, KYSE-520; KYSE520 cells, 1 hour incubation, pERK signal normalized to GAPDH; single assay or mean of multiple assays; read-out: Biological Example 2 IC50. The essentials: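 KYSE520 cells were treated 1 h with a 10-point 1:3 series (20 μM-1 nM, 0.5% DMSO), then fixed and stained for pERK1/2 (Thr202/Tyr204) and GAPDH by In-Cell Western. pERK signal was normalized to GAPDH per well; IC50 from 4-parameter fit.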

The target of assay [2] is T1, full-length SHP2 (Homo sapiens, UniProt Q06124).
T1 construct: 1 nM full-length SHP2 (His6-tagged SHP2(2-527), recombinantly expressed in E. coli and purified in-house); His6; made in house; host or cells: E. coli
T1 sequence (Q06124 2-527): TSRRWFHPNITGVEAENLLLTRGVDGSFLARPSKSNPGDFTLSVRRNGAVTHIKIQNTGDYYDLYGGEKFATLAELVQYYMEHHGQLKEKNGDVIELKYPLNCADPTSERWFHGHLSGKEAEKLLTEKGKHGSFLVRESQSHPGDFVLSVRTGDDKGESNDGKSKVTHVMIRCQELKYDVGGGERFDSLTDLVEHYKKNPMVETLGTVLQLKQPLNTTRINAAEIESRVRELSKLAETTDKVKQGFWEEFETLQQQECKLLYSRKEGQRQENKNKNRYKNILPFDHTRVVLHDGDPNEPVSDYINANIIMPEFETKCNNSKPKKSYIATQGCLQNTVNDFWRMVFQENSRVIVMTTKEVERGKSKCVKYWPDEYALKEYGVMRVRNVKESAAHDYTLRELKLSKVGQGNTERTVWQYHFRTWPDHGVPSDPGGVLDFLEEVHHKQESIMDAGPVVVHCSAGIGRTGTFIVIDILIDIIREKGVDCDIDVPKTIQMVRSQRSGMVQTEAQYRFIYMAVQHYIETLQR
The experiment in a line: SHP2 enzymatic assay (fluorescence intensity kinetic assay, DiFMUP hydrolysis). It counts as biochemical. The note with it: 1 nM His6-tagged SHP2(2-527), 1 μM activating peptide, 50 μM DiFMUP; single assay or mean of multiple assays; read-out: Biological Example 1 IC50.

What is called IC50 is the point on the concentration scale where inhibition reaches its midpoint. On to `N[C@@H]1c2ccccc2CC12CCN(c1ncc(Oc3cccc4cnccc34)nn1)CC2` [Example 28, (S)-1′-(6-(isoquinolin-5-yloxy)-1,2,4-triazin-3-yl)-1,3-dihydrospiro[indene-2,4′-piperidin]-1-amine], for which the IC50 in assay [1] came to 1140 nM; in assay [2], 879 nM.

As for `C[C@@H]1OCC2(CCN(c3ncc(Sc4c(Cl)cnc5[nH]ccc45)nn3)CC2)[C@@H]1N` [Example 9, (3S,4S)-8-(6-((5-chloro-1H-pyrrolo[2,3-b]pyridin-4-yl)thio)-1,2,4-triazin-3-yl)-3-methyl-2-oxa-8-azaspiro[4.5]decan-4-amine], the IC50 in assay [1] came out at 699 nM; in assay [2], 358 nM.

Take `Cc1nc2c(s1)[C@H](N)C1(CCN(c3ncc(Sc4ccnc(N)c4Cl)nn3)CC1)C2` [Example 57, (R)-1′-(6-((2-amino-3-chloropyridin-4-yl)thio)-1,2,4-triazin-3-yl)-2-methyl-4,6-dihydrospiro[cyclopenta[d]thiazole-5,4′-piperidin]-6-amine]: the results for the IC50 in assay [1] and in assay [2] were 139 nM and 643 nM, respectively.

Turning to `Cc1nccc(Sc2cnc(N3CCC4(CC3)Cc3ccccc3[C@H]4N)nn2)c1C` [Example 50, (S)-1′-(6-((2,3-dimethylpyridin-4-yl)thio)-1,2,4-triazin-3-yl)-1,3-dihydrospiro[indene-2,4′-piperidin]-1-amine], the IC50 came to 6 nM in assay [1] and 44 nM in assay [2].

Take `Cc1ccc2c(c1)[C@H](N)C1(CCN(c3ncc(Sc4ccnc(N)c4Cl)nn3)CC1)C2` [Example 47, (R)-1′-(6-((2-amino-3-chloropyridin-4-yl)thio)-1,2,4-triazin-3-yl)-6-methyl-1,3-dihydrospiro[indene-2,4′-piperidin]-1-amine]: the IC50 in assay [1] is 56 nM; in assay [2], 38 nM.

For the compound `C[C@@H]1OCC2(CCN(c3ncc(Sc4ccnc5[nH]ccc45)nn3)CC2)[C@@H]1N` [Example 8, (3S,4S)-8-(6-((1H-pyrrolo[2,3-6]pyridin-4-yl)thio)-1,2,4-triazin-3-yl)-3-methyl-2-oxa-8-azaspiro[4.5]decan-4-amine], the IC50 in assay [1] amounted to 48 nM; in assay [2], 69 nM.

In the case of `N[C@@H]1c2ccccc2CC12CCN(c1ncc(Sc3ccnc(C(F)(F)F)c3Cl)nn1)CC2` [Example 51, (S)-1′-(6-((3-chloro-2-(trifluoromethyl)pyridin-4-yl)thio)-1,2,4-triazin-3-yl)-1,3-dihydrospiro[indene-2,4′-piperidin]-1-amine], the half-maximal inhibitory concentration (IC50) in assay [1] is 78 nM; in assay [2] it was 93 nM.

Regarding `COc1ccc2c(c1)[C@@H](N)C1(CCN(c3ncc(Sc4ccnc(N)c4Cl)nn3)CC1)C2` [Example 84, (S)-1′-(6-((2-amino-3-chloropyridin-4-yl)thio)-1,2,4-triazin-3-yl)-6-methoxy-1,3-dihydrospiro[indene-2,4′-piperidin]-1-amine], the IC50 in assay [1] is 2 nM; in assay [2] it was 24 nM.

Regarding `N[C@@H]1c2ccccc2CC12CCN(c1ncc(Sc3n[nH]c4ccccc34)nn1)CC2` [Example 67, (S)-1′-(6-((1H-indazol-3-yl)thio)-1,2,4-triazin-3-yl)-1,3-dihydrospiro[indene-2,4′-piperidin]-1-amine], the IC50 in assay [1] is 51 nM; in assay [2], 20 nM.

Take `Cc1ccc2c(n1)CC1(CCN(c3ncc(Sc4ccnc(N)c4Cl)nn3)CC1)[C@H]2N` [Example 60]: the results for the IC50 in assay [1] and in assay [2] were 528 nM and 109 nM, respectively.

As for `Cn1ccc2c(Sc3cnc(N4CCC5(CC4)Cc4ccccc4[C@H]5N)nn3)ccnc21` [Example 73, (S)-1′-(6-((1-methyl-1H-pyrrolo[2,3-b]pyridin-4-yl)thio)-1,2,4-triazin-3-yl)-1,3-dihydrospiro[indene-2,4′-piperidin]-1-amine], the IC50 turned out to be 6 nM in assay [1] and 32 nM in assay [2].

Turning to `Nc1nccc(Sc2cnc(N3CCC4(CC3)Oc3ccccc3[C@H]4N)nn2)c1Cl` [Example 23, (R)-1′-(6-((2-amino-3-chloropyridin-4-yl)thio)-1,2,4-triazin-3-yl)-3H-spiro[benzofuran-2,4′-piperidin]-3-amine], the results for the IC50 in assay [1] and in assay [2] were 12 nM and 35 nM, respectively.

In the case of `Nc1nccc(Sc2cnc(N3CCC4(CC3)Cc3c(Cl)cccc3[C@@H]4N)nn2)c1Cl` [Example 82, (R)-1′-(6-((2-amino-3-chloropyridin-4-yl)thio)-1,2,4-triazin-3-yl)-4-chloro-1,3-dihydrospiro[indene-2,4′-piperidin]-1-amine], the results for the IC50 in assay [1] and in assay [2] were 541 nM and 205 nM, respectively.

For `CNc1nccc(Sc2cnc(N3CCC4(CC3)Cc3cc(C#N)ccc3[C@H]4N)nn2)c1Cl` (single isomer, unassigned) [Example 41], the IC50 is 19 nM in assay [1] and 79 nM in assay [2].

`N[C@@H]1c2ccccc2CC12CCN(c1ncc(Sc3cccc4c3CC4)nn1)CC2` [Example 37, (S)-1′-(6-(bicyclo[4.2.0]octa-1(6),2,4-trien-2-ylthio)-1,2,4-triazin-3-yl)-1,3-dihydrospiro[indene-2,4′-piperidin]-1-amine]: the IC50 worked out at 31 nM in assay [1] and 11 nM in assay [2].

Turning to `Nc1nccc(Sc2cnc(N3CCC4(CC3)Cc3cc(Cl)ccc3[C@@H]4N)nn2)c1Cl` [Example 46, (R)-1′-(6-((2-amino-3-chloropyridin-4-yl)thio)-1,2,4-triazin-3-yl)-5-chloro-1,3-dihydrospiro[indene-2,4′-piperidin]-1-amine], the results for the IC50 in assay [1] and in assay [2] were 430 nM and 91 nM, respectively.

For the compound `COc1nccc(Sc2cnc(N3CCC4(CC3)Cc3ccccc3[C@H]4N)nn2)c1Cl` [Example 55, (S)-1′-(6-((3-chloro-2-methoxypyridin-4-yl)thio)-1,2,4-triazin-3-yl)-1,3-dihydrospiro[indene-2,4′-piperidin]-1-amine], the IC50 in assay [1] worked out at 23 nM; in assay [2], 116 nM.

For the compound `N[C@@H]1c2ccccc2CC12CCN(c1ncc(Sc3cnc4ccccn34)nn1)CC2` [Example 71, (S)-1′-(6-(imidazo[1,2-a]pyridin-3-ylthio)-1,2,4-triazin-3-yl)-1,3-dihydrospiro[indene-2,4′-piperidin]-1-amine], the IC50 in assay [1] came to 152 nM; in assay [2], 55 nM.

`Nc1nccc(Sc2cnc(N3CCC4(CC3)Cc3ccccc3[C@H]4N)nn2)c1C1CC1` [Example 19, (S)-1′-(6-((2-amino-3-cyclopropylpyridin-4-yl)thio)-1,2,4-triazin-3-yl)-1,3-dihydrospiro[indene-2,4′-piperidin]-1-amine]: the IC50 in assay [1] was 208 nM; in assay [2], 44 nM.

On to `N[C@@H]1c2ccccc2CC12CCN(c1ncc(Sc3ccccc3)nn1)CC2` [Example 32, (S)-1′-(6-(phenylthio)-1,2,4-triazin-3-yl)-1,3-dihydrospiro[indene-2,4′-piperidin]-1-amine], for which the IC50 amounted to 14 nM in assay [1] and 5 nM in assay [2].

For `Cc1nc(N2CCC3(CC2)CO[C@@H](C)[C@H]3N)nnc1-c1cccc(Cl)c1Cl` [Example 5, (3S,4S)-8-(6-(2,3-dichlorophenyl)-5-methyl-1,2,4-triazin-3-yl)-3-methyl-2-oxa-8-azaspiro[4.5]decan-4-amine], the IC50 in assay [1] amounted to 337 nM; in assay [2] it was 28 nM.

Regarding `C[C@@H]1OCC2(CCN(c3ncc(Sc4ccnc(N)c4Cl)nn3)CC2)[C@@H]1N` [Example 1, (3S,4S)-8-(6-((2-amino-3-chloropyridin-4-yl)thio)-1,2,4-triazin-3-yl)-3-methyl-2-oxa-8-azaspiro[4.5]decan-4-amine], the results for the IC50 in assay [1] and in assay [2] were 55 nM and 59 nM, respectively.

For `Cc1nc(N2CCC3(CC2)CO[C@@H](C)[C@H]3N)nnc1Sc1cccc(Cl)c1Cl` [Example 13, (3S,4S)-8-(6-((2,3-dichlorophenyl)thio)-5-methyl-1,2,4-triazin-3-yl)-3-methyl-2-oxa-8-azaspiro[4.5]decan-4-amine], the IC50 in assay [1] is 1030 nM; in assay [2], 141 nM.

Turning to `NC1C[C@@H]2CC[C@@H](C1)N2c1ncc(Sc2cccc(Cl)c2Cl)nn1` (stereo partly drawn) [Example 12, (1R,3s,5S)-8-(6-((2,3-dichlorophenyl)thio)-1,2,4-triazin-3-yl)-8-azabicyclo[3.2.1]octan-3-amine], the figures for the IC50 in assay [1] and in assay [2] were 1110 nM and 174 nM, respectively.
